The source of these data is patent publication US6617440B1, “Myostatin regulatory region, nucleotide sequence determination and methods for its use” (Pfizer, Inc., priority 1999, dated 2003).

In data set [1] the test system is luciferase reporter gene in C2C12 cells. The data set can be described thus: Transient transfection luciferase reporter assay of myostatin promoter fragments. The following applies: normalized against Renilla luciferase activity. Format: cell-based, murine. The method, then:
C2C12 are murine muscle cell lines (ATCC #CRL-1772). These cells were maintained in standard culture media at 37° C.
The 1.8 kb and 2.5 kb myostatin promoter fragments and additional subclones of 320 bp and 901 bp proximal to the myostatin protein coding region were placed into the multicloning site of the pGL3 basic vector (Promega) 5′ to the coding sequence for luciferase. In this vector, the luciferase gene lacks a promoter, and, consequently, is under the control of any promoter cloned upstream of it. These plasmid vectors were used to transiently transfect C2C12 cells, using Fugene (Boehringer Mannheim) as a carrier to introduce the plasmid into the cells. The cell cultures were grown at 37° C., 5% CO2, in DMEM, and luciferase activity was measured using a commercial kit (Promega Luciferase Assay System, E150).
The ability of the various fragments of the murine myostatin promoter region to control expression of the luciferase reporter gene in transient transfection assays is shown in FIG. 2. In each experiment, C2C12 cells were co-transfected with a second vector that employs a CMV promotor to express constitutively a Renilla luciferase gene (pRL-CMV, Promega). Values presented for the myostatin promoter constructs were all normalized against Renilla luciferase activity.

The next data set concerns C2C12 muscle cells. Description: Expression of porcine GHRH from a myostatin promoter vector transiently transfected into C2C12 muscle cells. In kind it is cell-based, murine. The following applies: transient transfection, compared with a CMV promoter. The source says:
Direct injection into muscle of DNA plasmids with muscle specific or constitutive promoters results in expression of the gene under control of that promoter. A vector utilizing the murine 2.5 kb myostatin promoter to drive expression of porcine growth hormone releasing hormone (GHRH) was constructed. […] In accordance with the present invention, the construct may be directly introduced into a host by direct injection of naked DNA.

Take “2.5 kb fragment: 2482 bp DNA fragment immediately 5' to the murine myostatin gene, the murine myostatin promoter (SEQ ID NO: 1)”: the “transcriptional activity (luciferase reporter expression), in words” value in data set [1] is recorded as “strongest promoter of those tested”. The “expression of GHRH detected in culture supernatants” value in the data set with C2C12 muscle cells was “levels similar to those found using a CMV promoter”.
